Assay results as given in patent US20240182406A1, “COMPOUNDS AS SOLUBLE EPOXIDE HYDROLASE INHIBITORS” (UNIVERSITAT DE BARCELONA, priority 2021, published 2024).

Legend:
[1] = tested on: human primary astrocytes; assay: T/I/C-induced reactive astrocyte conversion, qPCR and Western blotting; type: cell-based
Description: To validate the inhibition efficacy of sEH, 10^6 astrocytes isolated from CD1 mouse brain (Sciencell #M1800) or primary human astrocyte (Sciencell #1800) were seeded onto 6 well culture plates in astrocyte medium (Sciencell #1831 or #1801).
Total RNAs were isolated from microglia or astrocyte using a Quick-RNA kit (Zymo Research, Inc., Irvine, CA, USA). The concentration of total RNAs was measured using a UV-Vis spectrophotometer (NanoDrop8000, Thermo Fisher Scientific Inc., Wilmington, DE, USA) and reverse-transcribed with a high-capacity cDNA reverse transcription kit (Applied Biosystems, Carlsbad, CA, USA). Gene expression was quantified by Fast SYBR green real-time PCR on a Quantstudio 5 system (Applied Biosystems). The primer sequences are listed below (Table 8). Data were analyzed according to the comparative Ct method. Glyceraldehyde 3-phosphate dehydrogenase (Gapdh) was used to normalize the amounts of cDNA within each sample.
Proteins were extracted from microglia or astrocyte by RIPA buffer (Thermo Fisher Scientific Inc.). Extracted proteins were separated by SDS/PAGE and subsequently transferred to nitrocellulose membranes (Bio-Rad, Hercules, CA, USA). […] Membranes visualized on Odyssey (LI-COR Biosciences, NE, USA).

[2] = tested on: C57BL/6 mice; assay: Cerulein-induced acute pancreatitis murine model; type: in vivo, mouse
Source text: Acute pancreatitis (AP) is a potentially life-threatening gastrointestinal disease, and its incidence has been increasing over the last few decades. The onset of the disease is thought to be triggered by intra-acinar cell activation of digestive enzymes that results in interstitial edema, inflammation and acinar cell death that often leads to a systemic inflammation response. […] The experimental procedure for the in vivo efficacy study followed already published protocols (Mol Pharmacol. 2015 August; 88(2):281-90)
In vivo efficacy study. Forty-one male C57BL/6 mice (eight week-old; approximately 24 g) were supplied by Envigo (Barcelona, Spain) (Ref. 16512). During the experimental procedure, animals were identified with permanent marker (tail code numbers). […] Animals were kept in an environmentally controlled room (ventilation, temperature 22±2° C. and humidity 35-65%) on a 12-h light/dark cycle. A period of 7 days of acclimatization underwent between the date of arrival and the start of the procedure. […] The maintenance diet was supplied by Harlan Interfauna Ibérica S. L. (2018 Harlan Teklad Global Diets). Diet will be provided to the animals ad libitum, but they were fasted overnight before first cerulein injection, and food was replaced after last cerulein injection. Tap water was supplied by CASSA (Servei d'Aigües de Sabadell) ad libitum. The animals were maintained in accordance with European Directive for the Protection of Vertebrate Animals Used for Experimental and other Scientific Purposes (86/609/EU). Decree 214/1997 of 30th July. Ministry of agriculture, livestock and fishing of the Autonomous Government of Catalonia, Spain. Royal Decree 53/2013 of 1st February (Spain). All the experimental procedures were approved by the Ethical Committee on human and animal experimentation (CEEAH) of Universitat Autònoma de Barcelona (UAB) (procedure number: 4107) and by the Animal Experimentation Commission of the Generalitat de Catalunya (Catalan Government) (DAAM: 10146). […]

With `O=C(NC12CC3CC(Cl)(CC(C1)c1ccccc13)C2)N[C@H]1CC[C@H](Oc2ccc(C(=O)O)cc2)CC1` [Example 2, 4-[((1r,4r)-4-(3-(9-chloro-5,6,8,9,10,11-hexahydro-7H-5,9:7,11-dimethanobenzo[9]annulen-7-yl)ureido)cyclohexyl)oxy]benzoic acid] the “induction of inflammatory mediators Nos and Cox2 mRNA” value ([1]; T/I/C 24 h, qPCR) was “prevented the induction”, the “mRNA levels of reactive astrocyte markers Cxcl10 and C3” value ([1]; T/I/C 24 h, qPCR) was “significantly reduced” and the “protein levels of C3 and phosphor-p38” value ([1]; T/I/C-induced reactive astrocyte, 30 μM (FIG. 5f)) was “decreased”. For the same compound, the “histologic analysis of pancreas (H&E), severity of cerulein-induced pancreatitis” value ([2]; both doses 0.1 and 0.3 mg/kg IP) was “ameliorated cerulein-induced effects”, the “body weight change at end of study” value ([2]; cerulein 50 μg/kg IP x12, single dose 0.3 or 0.1 mg/kg IP, only 0.3 mg/kg significant (p<0.01 vs Cerulein)) was “increased body weight” and the “histologic analysis of pancreas (H&E), pancreatic damage, edema, neutrophils infiltration” value ([2]; higher dose 0.3 mg/kg IP) was “more efficiently reversed the pancreatic damage, edema and neutrophils infiltration”.
